ChEMBL document CHEMBL1201862, “PubChem BioAssay data set” (2004)
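Growth conditions: 96-well plates. Treatment: test compound, 48 hours, 5 concentrations. Analysis: linear interpolation between bracketing concentrations; unreached endpoints set to highest concentration. GI50 is the concentration that inhibits growth by half.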 Activity calls are given as the source filed them. Cut-off read from the data, not from the text of the source: active = GI50 up to about 1.1 µM and inactive = higher.

Assays:
Test in all cases: NCI-60 cell line screen, 48 h
COLO 205 = system: COLO 205
DU-145 = system: DU-145
HCC 2998 = system: HCC 2998
HCT-15 = system: HCT-15
MDA-MB-231 = system: MDA-MB-231
MDA-MB-435 = system: MDA-MB-435
MDA-N = system: MDA-N
MOLT-4 = system: MOLT-4
NCI-H226 = system: NCI-H226
NCI/ADR-RES = system: NCI/ADR-RES
OVCAR-4 = system: OVCAR-4
OVCAR-5 = system: OVCAR-5
RPMI-8226 = system: RPMI-8226
SNB-75 = system: SNB-75
SR = system: SR
SW-620 = system: SW-620
TK-10 = system: TK-10
UO-31 = system: UO-31
M14 = system: M14
T47D = system: T47D

Row | Compound | GI50 (COLO 205) | GI50 (DU-145) | GI50 (HCC 2998) | GI50 (HCT-15) [µM] | GI50 (MDA-MB-231) | GI50 (MDA-MB-435) | GI50 (MDA-N) | GI50 (MOLT-4) | GI50 (NCI-H226) | GI50 (NCI/ADR-RES) | GI50 (OVCAR-4) | GI50 (OVCAR-5) | GI50 (RPMI-8226) | GI50 (SNB-75) | GI50 (SR) | GI50 (SW-620) | GI50 (TK-10) | GI50 (UO-31) | GI50 (M14) | GI50 (T47D)
1 | O=C(NCc1ccccc1Cl)c1c(O)c2ccccc2[nH]c1=O | 39.8 µM (inactive) | > 100 µM (inactive) | 33.3 µM (inactive) | 42.8 | 18.6 µM (inactive) | 36 µM (inactive) | 79.1 µM (inactive) | > 100 µM (inactive) | 44.7 µM (inactive) | 12.2 µM (inactive) | 8.53 µM (inactive) | > 100 µM (inactive) | 57.8 µM (inactive) | 21.6 µM (inactive) | > 100 µM (inactive) | 24.9 µM (inactive) | 56.4 µM (inactive) | 13.6 µM (inactive) | – | –
2 | CCOC(=O)C1C2CCC1CC(=NNc1ccc([N+](=O)[O-])cc1[N+](=O)[O-])C2 (stereo unspecified) | > 50 µM (inactive) | > 50 µM (inactive) | 45.1 µM (inactive) | > 50 | > 50 µM (inactive) | > 50 µM (inactive) | > 50 µM (inactive) | 31.4 µM (inactive) | 37.4 µM (inactive) | 4.38 µM (inactive) | > 50 µM (inactive) | > 50 µM (inactive) | 42.4 µM (inactive) | 18 µM (inactive) | 18.6 µM (inactive) | > 50 µM (inactive) | > 50 µM (inactive) | > 50 µM (inactive) | > 50 µM (inactive) | –
3 | N#CCCOc1cccc(C2(N3CCCCC3)CCCCC2)c1 | > 100 µM (inactive) | > 100 µM (inactive) | – | > 100 | > 100 µM (inactive) | > 100 µM (inactive) | – | > 100 µM (inactive) | > 100 µM (inactive) | > 100 µM (inactive) | > 100 µM (inactive) | > 100 µM (inactive) | > 100 µM (inactive) | – | > 100 µM (inactive) | > 100 µM (inactive) | > 100 µM (inactive) | > 100 µM (inactive) | > 100 µM (inactive) | > 100 µM (inactive)
4 | Cc1cc2[n-][n+]3ncc(-c4ccccc4)n3c2cc1[N+](=O)[O-] | > 100 µM (inactive) | > 100 µM (inactive) | – | > 100 | > 100 µM (inactive) | > 100 µM (inactive) | > 10 µM (inactive) | > 100 µM (inactive) | – | – | > 100 µM (inactive) | > 100 µM (inactive) | > 100 µM (inactive) | > 100 µM (inactive) | > 100 µM (inactive) | > 100 µM (inactive) | > 100 µM (inactive) | > 100 µM (inactive) | – | > 100 µM (inactive)
5 | O=C(c1c(F)c(F)c(F)c(F)c1F)n1c(=S)n(C(=O)c2c(F)c(F)c(F)c(F)c2F)c2ccccc21 | 49.9 µM (inactive) | 80.5 µM (inactive) | > 100 µM (inactive) | > 100 | > 100 µM (inactive) | > 10 µM (inactive) | > 100 µM (inactive) | 20 µM (inactive) | – | – | 95.5 µM (inactive) | > 100 µM (inactive) | 44.4 µM (inactive) | > 100 µM (inactive) | 39.9 µM (inactive) | 46.5 µM (inactive) | > 100 µM (inactive) | > 100 µM (inactive) | > 100 µM (inactive) | 82.4 µM (inactive)
6 | CCCNC(=O)Cn1c(C)cc2ccccc21 | > 100 µM (inactive) | > 100 µM (inactive) | > 100 µM (inactive) | > 100 | – | > 100 µM (inactive) | > 100 µM (inactive) | > 100 µM (inactive) | > 100 µM (inactive) | > 100 µM (inactive) | > 100 µM (inactive) | > 100 µM (inactive) | > 100 µM (inactive) | > 100 µM (inactive) | > 100 µM (inactive) | > 100 µM (inactive) | > 100 µM (inactive) | > 100 µM (inactive) | > 100 µM (inactive) | > 100 µM (inactive)
7 | COc1cccc(C2c3cc4c(cc3OC(NNS(=O)(=O)c3ccc(C)cc3)C2C)OCO4)c1OC (stereo unspecified) | 1.83 µM (inactive) | 2.29 µM (inactive) | 5.36 µM (inactive) | 2.65 | 5.47 µM (inactive) | 3.57 µM (inactive) | 3.37 µM (inactive) | 2.74 µM (inactive) | 2.56 µM (inactive) | – | – | 4.82 µM (inactive) | 2.28 µM (inactive) | 2.52 µM (inactive) | 1.36 µM (inactive) | 3.08 µM (inactive) | 4.46 µM (inactive) | 2.63 µM (inactive) | 3.59 µM (inactive) | 3.44 µM (inactive)
8 | CC(=O)C(=[N+]=[N-])C(=O)OCCOC(=O)C(=[N+]=[N-])C(C)=O | – | > 1 µM (active) | > 1 µM (active) | > 1 | > 1 µM (active) | > 1 µM (active) | > 1 µM (active) | > 1 µM (active) | > 1 µM (active) | – | – | > 1 µM (active) | > 1 µM (active) | > 1 µM (active) | > 1 µM (active) | – | > 1 µM (active) | > 1 µM (active) | > 1 µM (active) | > 1 µM (active)
9 | O=C1c2ccccc2C(=O)c2sc(Nc3ccc([N+](=O)[O-])cc3)nc21 | 8.59 µM (inactive) | 19.2 µM (inactive) | 16 µM (inactive) | 5.32 | 2.3 µM (inactive) | – | 2 µM (inactive) | 1.92 µM (inactive) | 17.2 µM (inactive) | – | 4.4 µM (inactive) | 13.7 µM (inactive) | 2.35 µM (inactive) | 7.89 µM (inactive) | 2.63 µM (inactive) | 4 µM (inactive) | 12.2 µM (inactive) | 3.87 µM (inactive) | 2.54 µM (inactive) | 2.18 µM (inactive)
10 | N#Cc1c(N)c(-c2ccc(Cl)cc2)c(F)c2ccccc12 | > 100 µM (inactive) | – | > 100 µM (inactive) | > 100 | 66.2 µM (inactive) | > 100 µM (inactive) | > 100 µM (inactive) | – | > 100 µM (inactive) | > 100 µM (inactive) | > 100 µM (inactive) | > 100 µM (inactive) | 6.65 µM (inactive) | 11.1 µM (inactive) | – | > 100 µM (inactive) | > 100 µM (inactive) | 3.2 µM (inactive) | > 100 µM (inactive) | > 100 µM (inactive)
11 | Clc1ccc(OCc2nnc3sc(SSc4nn5c(COc6ccc(Cl)cc6)nnc5s4)nn23)cc1 | > 100 µM (inactive) | > 100 µM (inactive) | – | – | > 100 µM (inactive) | 92.9 µM (inactive) | – | – | > 100 µM (inactive) | > 100 µM (inactive) | – | > 100 µM (inactive) | 44.8 µM (inactive) | > 100 µM (inactive) | – | > 100 µM (inactive) | – | 52 µM (inactive) | > 100 µM (inactive) | 49.5 µM (inactive)
12 | Nc1ccc(-c2nn3c(COc4ccc(Cl)cc4)nnc3s2)cc1 | 74.5 µM (inactive) | > 100 µM (inactive) | > 100 µM (inactive) | > 100 | 87.3 µM (inactive) | 62.2 µM (inactive) | – | 51.3 µM (inactive) | – | > 100 µM (inactive) | > 100 µM (inactive) | > 100 µM (inactive) | 77.6 µM (inactive) | > 100 µM (inactive) | – | > 100 µM (inactive) | > 100 µM (inactive) | 84.9 µM (inactive) | > 100 µM (inactive) | > 100 µM (inactive)
